tested on: cholinesterase (ChE), resistant strain; assay: not given; format: biochemical, green rice leafhopper, Nephotettix cincticeps; settings: ratio of the resistant strain to the susceptible strain (I50); 30 min
Description: After centrifuged (30,000 g, 10 min.), the supernatant was used as the source of ChE.
(§1) (2) Inhibition: 1.0 ml of enzyme solution was incubated with 0.1 ml of inhibitor which diluted with acetone at 30° C. for 30 min. ((2) solution).
(3) Determination of ChE activity: 1.0 ml of acetylthiochline (3.5/2×10^-2 M), 1.0 ml of DTNB (5,5'-dithiobis-2-nitrobenzoic acid, 2.5×10^-4 M) and 4.0 ml of phosphate buffer (1/15 M, pH 7.4) were added to the (2) solution and incubated at 30° C. for 10 min.

| Structure (SMILES) | Inhibition of Cholinesterase R/S (resistant ratio) |
| --- | --- |
| CCOc1ccccc1OC(=O)NC [Compound 79, reference compound] | 12.0 |
| CCc1cccc(OC(=O)NC)c1 [Compound 29, reference compound] | 41.4 |
| CCCCNC(=O)Oc1cccc(C(C)CCC)c1 (stereo not drawn) [Compound 22] | 0.1 |
| CNC(=O)Oc1ccccc1OC [Compound 76, reference compound] | 32.3 |
| CCCCNC(=O)Oc1ccccc1C(C)CC (stereo not drawn) [Compound 9] | < 0.1 |
| C=CCNC(=O)Oc1cccc(C(C)(C)C)c1 [Compound 34] | 0.3 |
| CCNC(=O)Oc1ccccc1C(C)C [Compound 2, 2-isopropylpheny-N-ethylcarbamate] | 1.6 |

same assay, conditions: resistant strain; 50% inhibition concentration; 30° C. 30 min with inhibitor; read-out: Inhibition of Cholinesterase I50 (M) R

| Structure (SMILES) | IC50 |
| --- | --- |
| CCOc1ccccc1OC(=O)NC [Compound 79, reference compound] | 0.0003 M |
| CCc1cccc(OC(=O)NC)c1 [Compound 29, reference compound] | 0.00012 M |
| CCCCNC(=O)Oc1cccc(C(C)CCC)c1 (stereo not drawn) [Compound 22] | 6.3e-06 M |
| CNC(=O)Oc1ccccc1OC [Compound 76, reference compound] | 0.00055 M |
| CCCCNC(=O)Oc1ccccc1C(C)CC (stereo not drawn) [Compound 9] | 0.00014 M |
| C=CCNC(=O)Oc1cccc(C(C)(C)C)c1 [Compound 34] | 8.9e-06 M |
| CCNC(=O)Oc1ccccc1C(C)C [Compound 2, 2-isopropylpheny-N-ethylcarbamate] | 5.2e-05 M |

tested on: green rice leafhoppers of the strain RN; assay: Test Example 3: dust spray test (20 mesh metal gauze cylinder); format: in vivo, Nephotettix cincticeps; settings: Table 9; dust mixed with 1; RN
Description: The insecticides in the form of dust were tested for insecticidal activity.
(§2) The test for insecticidal activity was performed by the following procedure. […] The dust of a test compound (pulverized by means of a shaking pulverizer made by Taira Kosakusho, Ltd.) was applied onto the tube contents at a prescribed rate by spraying from outside the metal gauze by means of a bell-jar duster. The dust of the test compound was prepared uniformly mixing 2 parts of the dust of the individual compound or 1 part each of the dusts of the mixture components (total 2 parts) and 98 parts of a carrier obtained by mixing talc and clay in equal volumes.

| Structure (SMILES) | death ratio (%), mixture with Compound No. 1 |
| --- | --- |
| CCOc1ccccc1OC(=O)NC [Compound 79, reference compound] | 0% |
| CNC(=O)Oc1ccccc1OC [Compound 76, reference compound] | 15.0% |

same assay, conditions: Table 9; dust mixed with 6*; RN

| Structure (SMILES) | death ratio (%), mixture with Compound No. 6* |
| --- | --- |
| CCOc1ccccc1OC(=O)NC [Compound 79, reference compound] | 0% |
| CNC(=O)Oc1ccccc1OC [Compound 76, reference compound] | 0% |

same assay, conditions: Table 9; dust mixed with 24*; RN

| Structure (SMILES) | death ratio (%), mixture with Compound No. 24* |
| --- | --- |
| CCOc1ccccc1OC(=O)NC [Compound 79, reference compound] | 0% |
| CNC(=O)Oc1ccccc1OC [Compound 76, reference compound] | 20.0% |

same assay, conditions: Table 9; dust mixed with 35*; RN

| Structure (SMILES) | death ratio (%), mixture with Compound No. 35* |
| --- | --- |
| CCOc1ccccc1OC(=O)NC [Compound 79, reference compound] | 0% |
| CNC(=O)Oc1ccccc1OC [Compound 76, reference compound] | 10.0% |

same assay, conditions: Table 9; dust mixed with 40*; RN

| Structure (SMILES) | death ratio (%), mixture with Compound No. 40* |
| --- | --- |
| CCOc1ccccc1OC(=O)NC [Compound 79, reference compound] | 10.0% |
| CNC(=O)Oc1ccccc1OC [Compound 76, reference compound] | 0% |

same assay, conditions: Table 9; dust mixed with 49*; RN

| Structure (SMILES) | death ratio (%), mixture with Compound No. 49* |
| --- | --- |
| CCOc1ccccc1OC(=O)NC [Compound 79, reference compound] | 0% |
| CNC(=O)Oc1ccccc1OC [Compound 76, reference compound] | 0% |

same assay, conditions: Table 9; dust mixed with 81*; RN

| Structure (SMILES) | death ratio (%), mixture with Compound No. 81* |
| --- | --- |
| CCOc1ccccc1OC(=O)NC [Compound 79, reference compound] | 5.0% |
| CNC(=O)Oc1ccccc1OC [Compound 76, reference compound] | 35.0% |

same assay, conditions: Table 9; dust mixed with 118*; RN

| Structure (SMILES) | death ratio (%), mixture with Compound No. 118* |
| --- | --- |
| CCOc1ccccc1OC(=O)NC [Compound 79, reference compound] | 25.0% |
| CNC(=O)Oc1ccccc1OC [Compound 76, reference compound] | 45.0% |

same assay, conditions: Table 9; dust mixed with Carbofuran; RN

| Structure (SMILES) | death ratio (%), mixture with Carbofuran |
| --- | --- |
| CCOc1ccccc1OC(=O)NC [Compound 79, reference compound] | 40.0% |
| CNC(=O)Oc1ccccc1OC [Compound 76, reference compound] | 60.0% |

same assay, conditions: Table 9; dust mixed with Methomyl; RN

| Structure (SMILES) | death ratio (%), mixture with Methomyl |
| --- | --- |
| CNC(=O)Oc1ccccc1OC [Compound 76, reference compound] | 55.0% |

same assay, conditions: dust; compound alone; RN strain

| Structure (SMILES) | Effect of individual compound (RN), death ratio (%) (Table 9) |
| --- | --- |
| CNC(=O)Oc1cccc2ccccc12 [Compound 49, 1-naphthyl-N-methylcarbamate] | 0% |
| CCOc1ccccc1OC(=O)NC [Compound 79, reference compound] | 0% |
| CNC(=O)Oc1ccccc1OC [Compound 76, reference compound] | 0% |

tested on: green rice leafhoppers of the strain RN; assay: Test Example 4: dust test with 35 mesh metal gauze; format: in vivo, Nephotettix cincticeps; settings: 1 h, read-out: Death ratio (%) 1 hr., Dusting amount 100 mg
Description: as §2

| Structure (SMILES) | mortality at 100 mg |
| --- | --- |
| CNC(=O)Oc1cccc2ccccc12 [Compound 49, 1-naphthyl-N-methylcarbamate] | 0% |

same assay, conditions: 1 h, read-out: Death ratio (%) 1 hr., Dusting amount 250 mg

| Structure (SMILES) | mortality at 250 mg |
| --- | --- |
| CNC(=O)Oc1cccc2ccccc12 [Compound 49, 1-naphthyl-N-methylcarbamate] | 0% |

same assay, conditions: 1 h, read-out: Death ratio (%) 1 hr., Dusting amount 500 mg

| Structure (SMILES) | mortality at 500 mg |
| --- | --- |
| CNC(=O)Oc1cccc2ccccc12 [Compound 49, 1-naphthyl-N-methylcarbamate] | 0% |

same assay, conditions: 2 h, read-out: Death ratio (%) 2 hrs., Dusting amount 100 mg

| Structure (SMILES) | mortality at 100 mg |
| --- | --- |
| CNC(=O)Oc1cccc2ccccc12 [Compound 49, 1-naphthyl-N-methylcarbamate] | 0% |

same assay, conditions: 2 h, read-out: Death ratio (%) 2 hrs., Dusting amount 250 mg

| Structure (SMILES) | mortality at 250 mg |
| --- | --- |
| CNC(=O)Oc1cccc2ccccc12 [Compound 49, 1-naphthyl-N-methylcarbamate] | 0% |

same assay, conditions: 2 h, read-out: Death ratio (%) 2 hrs., Dusting amount 500 mg

| Structure (SMILES) | mortality at 500 mg |
| --- | --- |
| CNC(=O)Oc1cccc2ccccc12 [Compound 49, 1-naphthyl-N-methylcarbamate] | 0% |

same assay, conditions: 4 h, read-out: Death ratio (%) 4 hrs., Dusting amount 100 mg

| Structure (SMILES) | mortality at 100 mg |
| --- | --- |
| CNC(=O)Oc1cccc2ccccc12 [Compound 49, 1-naphthyl-N-methylcarbamate] | 0% |

same assay, conditions: 4 h, read-out: Death ratio (%) 4 hrs., Dusting amount 250 mg

| Structure (SMILES) | mortality at 250 mg |
| --- | --- |
| CNC(=O)Oc1cccc2ccccc12 [Compound 49, 1-naphthyl-N-methylcarbamate] | 0% |

same assay, conditions: 4 h, read-out: Death ratio (%) 4 hrs., Dusting amount 500 mg

| Structure (SMILES) | mortality at 500 mg |
| --- | --- |
| CNC(=O)Oc1cccc2ccccc12 [Compound 49, 1-naphthyl-N-methylcarbamate] | 0% |

same assay, conditions: 16 h, read-out: Death ratio (%) 16 hrs., Dusting amount 100 mg

| Structure (SMILES) | mortality at 100 mg |
| --- | --- |
| CNC(=O)Oc1cccc2ccccc12 [Compound 49, 1-naphthyl-N-methylcarbamate] | 0% |

same assay, conditions: 16 h, read-out: Death ratio (%) 16 hrs., Dusting amount 250 mg

| Structure (SMILES) | mortality at 250 mg |
| --- | --- |
| CNC(=O)Oc1cccc2ccccc12 [Compound 49, 1-naphthyl-N-methylcarbamate] | 0% |

same assay, conditions: 16 h, read-out: Death ratio (%) 16 hrs., Dusting amount 500 mg

| Structure (SMILES) | mortality at 500 mg |
| --- | --- |
| CNC(=O)Oc1cccc2ccccc12 [Compound 49, 1-naphthyl-N-methylcarbamate] | 0% |

same assay, conditions: 24 h, read-out: Death ratio (%) 24 hrs., Dusting amount 100 mg

| Structure (SMILES) | mortality at 100 mg |
| --- | --- |
| CNC(=O)Oc1cccc2ccccc12 [Compound 49, 1-naphthyl-N-methylcarbamate] | 0% |

same assay, conditions: 24 h, read-out: Death ratio (%) 24 hrs., Dusting amount 250 mg

| Structure (SMILES) | mortality at 250 mg |
| --- | --- |
| CNC(=O)Oc1cccc2ccccc12 [Compound 49, 1-naphthyl-N-methylcarbamate] | 0% |

same assay, conditions: 24 h, read-out: Death ratio (%) 24 hrs., Dusting amount 500 mg

| Structure (SMILES) | mortality at 500 mg |
| --- | --- |
| CNC(=O)Oc1cccc2ccccc12 [Compound 49, 1-naphthyl-N-methylcarbamate] | 0% |

molecular target: cholinesterase (ChE), susceptible strain; assay: Inhibition of cholinesterase (acetylthiocholine method), susceptible strain enzyme; format: biochemical, green rice leafhopper, Nephotettix cincticeps; settings: 50% inhibition concentration, 30° C. 30 min with inhibitor, read-out: Inhibition of Cholinesterase I50 (M) S
Description: The activity of ChE was performed by the acethyethiocholine method [Ellman (1961), Biochemical Pharmacology 7: 88-95].
[…]. After centrifuged (30,000 g, 10 min.), the supernatant was used as the source of ChE.
as §1
(3) Determination of ChE activity: 1.0 ml of acetylthiochline (3.5/2×10^-2 M), 1.0 ml of DTNB (5,5'-dithiobis-2-nitrobenzoic acid, 2.5×10^-4 M) and 4.0 ml of phosphate buffer (1/15 M, pH 7.4) were added to the (2) solution and incubated at 30° C. for 10 min. After incubation, […] of eserine (2×10^-3 M) was added in order to stop the enzyme reaction and the optical density of the yellow solution was measured at 412 mμ on the spectrophotometer.

| Structure (SMILES) | IC50 |
| --- | --- |
| CCOc1ccccc1OC(=O)NC [Compound 79, reference compound] | 2.5e-05 M |
| CCc1cccc(OC(=O)NC)c1 [Compound 29, reference compound] | 2.9e-06 M |
| CCCCNC(=O)Oc1cccc(C(C)CCC)c1 (stereo not drawn) [Compound 22] | 5.1e-05 M |
| CNC(=O)Oc1ccccc1OC [Compound 76, reference compound] | 1.7e-05 M |
| CCCCNC(=O)Oc1ccccc1C(C)CC (stereo not drawn) [Compound 9] | > 0.001 M |
| C=CCNC(=O)Oc1cccc(C(C)(C)C)c1 [Compound 34] | 2.6e-05 M |
| CCNC(=O)Oc1ccccc1C(C)C [Compound 2, 2-isopropylpheny-N-ethylcarbamate] | 3.2e-05 M |

tested on: resistant green rice leafhoppers (R); assay: not given; settings: ratio of the resistant strain to the susceptible strain (LD50); 1440 min
Description: (1) A 20-mg portion of a given test compound was weighed out and dissolved in 10 ml of acetone. The resultant solution was diluted at proper times with acetone.
(2) With a micro-syringe, the acetone solution of the test compound was topically applied to the thoracic region of female green rice leafhoppers at a fixed dose of 0.2 μl per head.
(3) The female green rice leafhoppers thus treated were placed in a plastic cup prepared in advance (measuring 7 cm in diameter and 3.5 cm in depth and containing rice seeds) and kept at a constant temperature of 26±1° C. After 24 hours' standing, the dead insects were counted.
In the case of a mixed insecticide, the LD50 was shown as a total dosage.

| Structure (SMILES) | Insecticidal Activity R/S (resistant ratio) |
| --- | --- |
| CCc1cccc(OC(=O)NC)c1 [Compound 29, reference compound] | 14.9 |
| CCCCNC(=O)Oc1cccc(C(C)CCC)c1 (stereo not drawn) [Compound 22] | 0.9 |
| CCCCNC(=O)Oc1ccccc1C(C)CC (stereo not drawn) [Compound 9] | < 1.0 |
| C=CCNC(=O)Oc1cccc(C(C)(C)C)c1 [Compound 34] | 1.1 |
| CCNC(=O)Oc1ccccc1C(C)C [Compound 2, 2-isopropylpheny-N-ethylcarbamate] | 2.1 |

— patent US4226883A, “Carbamate derivatives and method for manufacture thereof” (priority 1974, dated 1980)
